Test results: publication PMC5054527, “Mechanism of high affinity inhibition of the human urate transporter URAT1” (Scientific Reports, 2016)
Residue numbers refer to the chain shown, from its start. Where two headings read alike, the source gives them in different places.

Key:
[1] = molecular target: T1, r-F351C rURAT1 point mutant (Rattus norvegicus, UniProt Q3ZAV1, F351C); assay: URAT1 uric acid transport activity assay; format: cell-based
T1 sequence (Q3ZAV1 1-553 F351C): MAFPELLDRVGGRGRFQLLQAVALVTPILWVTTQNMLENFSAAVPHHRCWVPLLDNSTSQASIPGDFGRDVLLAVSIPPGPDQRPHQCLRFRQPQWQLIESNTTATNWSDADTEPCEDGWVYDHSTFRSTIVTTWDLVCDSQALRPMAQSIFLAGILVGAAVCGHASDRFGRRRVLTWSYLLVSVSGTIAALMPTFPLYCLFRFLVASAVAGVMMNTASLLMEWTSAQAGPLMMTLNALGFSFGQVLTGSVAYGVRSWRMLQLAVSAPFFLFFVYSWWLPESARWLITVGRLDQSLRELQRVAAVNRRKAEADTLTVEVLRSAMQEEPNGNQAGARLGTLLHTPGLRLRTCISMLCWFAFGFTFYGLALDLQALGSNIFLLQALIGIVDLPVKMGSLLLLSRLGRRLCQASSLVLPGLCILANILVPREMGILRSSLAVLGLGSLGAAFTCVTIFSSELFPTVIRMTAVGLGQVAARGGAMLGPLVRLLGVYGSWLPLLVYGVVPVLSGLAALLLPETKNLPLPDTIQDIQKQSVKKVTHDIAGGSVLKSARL
From the text: (§1) hURAT1 (GenBank BC053348.1) and rURAT1 (NCBI NM_001034943.1) genes were purchased from Origene Technologies, Inc. and subcloned into pCMV6/neo using NotI, creating pCMV6/neo-hURAT1 and pCMV6/neo-rURAT1. Mutants were produced by polymerase chain reaction (PCR) or site-directed mutagenesis using the QuikChange Lightning Multi Site-Directed Mutagenesis Kit (Agilent Technologies). […] Detailed methods are provided in Supplementary Methods, and primers are listed in Supplementary Table 1. […] Residues in rURAT1 and hOAT1 that correspond to the residues in hURAT1 were identified from aligned protein sequences (Supplementary Fig. 1)[50].
(§2) DNA (10 μg) was mixed with 30 μl of DreamFect Gold (Boca Scientific) in 2 ml OptiMem (Life Technologies). After 20 minutes, 18 ml of media containing 2 × 10^7 cells in suspension was added and mixed, and 200 μl per well were plated onto white clear-bottomed poly-D-lysine coated 96-well plates (BD Biosciences). The cells were assayed the following day.
(§3) Compounds were serially diluted into assay buffer and added to the cells for 5 minutes prior to addition of radiolabelled uric acid substrate. URAT1-expressing cells were incubated with 100 μM ^14C-uric acid for 10 minutes. […] Each treatment was measured in triplicate.
(§4) Unlabelled uric acid was prepared at a 20 mM stock just prior to use in a solution containing 20 mM dibasic potassium phosphate and 20 mM potassium hydroxide.
(§5) Nonlinear regression analyses using GraphPad Prism software were used to calculate the potency of URAT1 inhibitors (IC50 values) from log (inhibitor) versus response - variable slope (four parameters) equations. Statistical significance was assessed using Student’s unpaired t-tests.

[2] = molecular target: T2, r-N35S/Y365F/M481I rURAT1 triple point mutant (Rattus norvegicus, UniProt Q3ZAV1, M481I/N35S/Y365F); assay: URAT1 uric acid transport activity assay; format: cell-based
T2 construct: hURAT1 and rURAT1 are 553 amino acid proteins with 12 transmembrane segments; expressed in transfected cells; host or cells: HEK-293T
T2 sequence (Q3ZAV1 1-553 N35S/Y365F/M481I): T1 sequence (Q3ZAV1 1-553 F351C) with N35S, C351F, Y365F, M481I
From the text: as §1, §2, §3, §4, §5

human URAT1 = molecular target: T3, human URAT1 (Homo sapiens, UniProt Q96S37); assay: ^3H-RDEA3170 URAT1 membrane binding assay; conditions: human URAT1 membranes; 10 nM ^3H-RDEA3170
T3 construct: hURAT1 and rURAT1 are 553 amino acid proteins with 12 transmembrane segments; expressed in transfected cells; host or cells: URAT1-transfected cells (HEK-293T per the transfection section)
T3 sequence (Q96S37 1-553): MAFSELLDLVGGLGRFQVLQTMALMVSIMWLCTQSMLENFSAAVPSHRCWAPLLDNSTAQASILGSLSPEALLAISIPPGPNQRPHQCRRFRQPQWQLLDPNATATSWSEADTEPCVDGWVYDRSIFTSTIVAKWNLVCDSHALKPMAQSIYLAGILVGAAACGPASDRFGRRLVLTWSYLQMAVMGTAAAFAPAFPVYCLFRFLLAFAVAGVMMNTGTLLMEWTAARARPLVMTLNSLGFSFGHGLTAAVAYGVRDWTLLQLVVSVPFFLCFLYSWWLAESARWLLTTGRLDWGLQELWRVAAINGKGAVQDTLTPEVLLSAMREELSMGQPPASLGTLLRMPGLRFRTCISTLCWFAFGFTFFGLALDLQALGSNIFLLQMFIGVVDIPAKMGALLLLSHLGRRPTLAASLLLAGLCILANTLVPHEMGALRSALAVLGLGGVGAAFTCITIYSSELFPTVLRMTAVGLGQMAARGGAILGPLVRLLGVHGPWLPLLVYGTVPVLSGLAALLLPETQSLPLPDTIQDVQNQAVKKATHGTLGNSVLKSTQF
Protocol: Membranes were prepared from URAT1-transfected cells. […] Cells were lysed with 100 strokes in a dounce homogenizer using a tight-fitting “B” stem. Lysates were transferred to 1.5 ml Eppendorf tubes and centrifuged at 250 rcf for 5 minutes at 2 °C, and supernatants were transferred to fresh tubes and centrifuged again at 18,000 rcf for 20 minutes at 2 °C. The pellets (membrane fractions) were resuspended in 1 ml of ice-cold binding buffer containing protease inhibitors and frozen at −80 °C. Protein was measured using the Bio-Rad protein assay dye reagent concentrate.
To initiate binding, membranes at 2.5 μg total protein were incubated with ^3H-RDEA3170 for 30 minutes at room temperature. […] The plates were then subjected to scintillation counting. All samples were assayed in triplicate.

Structure (SMILES)	IC50 [1]	IC50 [2]	displacement of ^3H-RDEA3170 binding to hURAT1 (human URAT1)	IC50 ([1]; r-F351C, MES pH 5.5, 100 μM 14C-uric acid, read-out: IC50 (uric acid transport))	IC50 ([2]; r-N35S/Y365F/M481I, MES pH 5.5, 100 μM 14C-uric acid, read-out: IC50 (uric acid transport))	IC50 ([1]; r-F351C, HEPES pH 7.3, 100 μM 14C-uric acid, read-out: IC50 (uric acid transport))	IC50 ([2]; r-N35S/Y365F/M481I, HEPES pH 7.3, 100 μM 14C-uric acid, read-out: IC50 (uric acid transport))
CCc1oc2ccccc2c1C(=O)c1cc(Br)c(O)c(Br)c1 [benzbromarone]	24 ± 3.3 µM	0.61 ± 0.04 µM	displace binding of the probe	–	–	–	–
O=C(O)CSc1nnc(Br)n1-c1ccc(C2CC2)c2ccccc12 [lesinurad, 2-((5-bromo-4-(4-cyclopropylnaphthalen-1-yl)-4H-1,2,4-triazol-3-yl)thio)acetic acid]	–	–	displace binding of the probe	82 ± 1.7 µM	1.2 ± 0.14 µM	–	–
O=C1C(CC[S+]([O-])c2ccccc2)C(=O)N(c2ccccc2)N1c1ccccc1 (stereo not drawn) [sulfinpyrazone]	–	–	displace binding of the probe	–	–	924 ± 276 µM	49 ± 2.2 µM
